The target in one data set is T1, mOat1 (Mus musculus, UniProt Q8VC69).
T1 construct: expressed in transfected cells; host or cells: HEK293
T1 sequence (Q8VC69 1-545): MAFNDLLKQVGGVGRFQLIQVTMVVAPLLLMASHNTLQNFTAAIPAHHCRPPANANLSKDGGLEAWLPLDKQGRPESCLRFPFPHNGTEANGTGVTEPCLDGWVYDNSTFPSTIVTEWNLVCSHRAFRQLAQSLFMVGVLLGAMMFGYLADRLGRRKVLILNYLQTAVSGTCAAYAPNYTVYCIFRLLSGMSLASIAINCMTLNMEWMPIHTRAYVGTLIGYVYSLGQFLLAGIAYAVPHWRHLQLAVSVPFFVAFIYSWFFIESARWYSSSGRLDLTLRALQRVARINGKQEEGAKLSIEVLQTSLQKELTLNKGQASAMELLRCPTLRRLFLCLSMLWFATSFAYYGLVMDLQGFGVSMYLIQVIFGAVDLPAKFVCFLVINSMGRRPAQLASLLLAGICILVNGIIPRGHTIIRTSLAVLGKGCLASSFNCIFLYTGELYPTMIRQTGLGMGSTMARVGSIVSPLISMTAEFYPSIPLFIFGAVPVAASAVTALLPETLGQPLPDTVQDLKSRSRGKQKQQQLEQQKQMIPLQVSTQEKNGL
As to the kind of experiment: Two-point inhibition of mOat1-mediated PAH uptake in transfected HEK293 cells. To be noted: PAH 10 μM, 1 min. The data set is classed as in vitro ADME. On the procedure: Well-characterized mOct1-, mOct2-, mOat1-, mOat2-, mOat3-, mMate1-, hOAT1-, hOAT3-, hOAT4-, hMRP2-, mMdr1a- and mMdr1b-transfected HEK293 cells and the respective vector-transfected control HEK293 cells were used.[42],[51],[52] All HEK293 cells (transporter-transfected and vector-transfected) were cultured in DMEM (Sigma, high glucose, 10% FBS, 1% penicillin (10,000 Units/mL)/streptomycin (10 mg/mL)) at 37°C under 5% CO2 in humidified atmosphere. The cells were routinely checked for the absence of mycoplasma infection. For the preparation of HEK293 cell monolayers, 24-well plates were pretreated with a poly-D-lysine hydrobromide solution (0.1 mg/mL). Each well was coated with 0.5 mL of poly-D-lysine solution and incubated for at least 15 min. After complete removal of the solution, the plates were dried for 30 min. Cells (vector-transfected and transporter-transfected) treated with trypsin were immediately seeded into 24-well plates and cultured for 3 days before being used for transport experiments.
For the uptake assay, the growth medium was aspirated, and each well was rinsed three times with 0.5 mL of incubation buffer (HBSS supplemented with 20 mM HEPES, pH 7.4) and incubated for 20 min at 37 °C. Afterward, buffers were removed, and 200 μL of the incubation buffer containing a radiolabeled substrate and the nonlabeled CHD and CDCHD or reference inhibitor (Table S1), respectively, was added to each well and incubated at 37 °C for designated time intervals. […] Cells were solubilized with 0.6 mL of 1N NaOH overnight and transferred into scintillation vials. ^3H and ^14C contents were measured after the addition of 2.5 mL of scintillator in a liquid scintillation counter.
The cellular protein amount was determined in parallel for each cell line (vector- and transporter-transfected) from six wells in a different 24-well reference plate using the Bradford method. […]
The inhibitory effect (I(%)) was calculated according to the formula: [drawing 5] […]

Details of data set [1]: method as in PMID 38047701. To be noted: 15 mg/kg IV; up to 8 h post administration; cited from earlier work.

Structures are written as SMILES.

Consider `CC(=O)C1=C(O)[C@@H](N)[C@H]2Cc3c(c(O)c4c(O)c(C)ccc4c3C)C(=O)[C@@]2(O)C1=O` [CHD, chelocardin], for which, at mOat1 (1 and 10 μM tested), the “inhibitory effect on mOat1” value is recorded as “less than 50%”. In addition, the “inhibitory effect on mOat1 (in words)” value against mOat1 (1 and 10 μM) was “concentration-dependent inhibitory effects”. The inhibition at 10 µM on mOat1 (HEK293, at 10 μM, read-out: inhibitory effect on mOat1) was roughly 50%. Further, the “urine levels of CHD compared to CDCHD” value in data set [1] is recorded as 10 fold.

These data come from publication PMC11249637, “Interaction of the Atypical Tetracyclines Chelocardin and Amidochelocardin with Renal Drug Transporters” (ACS Pharmacology & Translational Science, 2024).
